Assay results: ChEMBL document CHEMBL3885861, “Open TG-GATES”

Organism: Rattus norvegicus
Assay: Open TG-GATES - Regimen: Single
Assay type: toxicity, organism-based, Sprague-Dawley
Set-up: regimen Single, gender Male, age 6 weeks
Conditions: in vivo, po, 50 mg/kg, route gavage, dose level Middle; for APTT / Bas / Eos / Fbg / Hb / Ht / Lym / MCH / MCHC / MCV / Mono / Neu / PT / Plat / RBC / Ret / WBC: tissue Blood; for KIDNEY_L / KIDNEY_R / KIDNEY_TOTAL: tissue Kidney; for LIVER: tissue Liver; for A/G / ALP / ALT / AST / BUN / CRE / Ca / Cl / DBIL / GLC / IP / K / LDH / Na / PL / RALB / TBIL / TC / TG / TP / gamma-GTP: tissue Plasma

## CC1=C(CC(=O)O)c2cc(F)ccc2/C1=C\c1ccc([S+](C)[O-])cc1 (configuration not stated)
3 h
  TERMINAL_BW: 204.9 g
  APTT: 16.8 s
  Bas: 0%
  Eos: 1%
  Fbg: 266 mg/dL
  Hb: 13.2 g/dL
  Ht: 40.3%
  Lym: 77.6%
  MCH: 21.2 pg
  MCHC: 32.7%
  MCV: 65 fL
  Mono: 2.6%
  Neu: 18.4%
  PT: 14.1 s
  Plat: 130.3 x10_4/uL
  RBC: 620.8 x10_4/ul
  Ret: 8.7%
  WBC: 77.3 x10_2/uL
  KIDNEY_L: 0.9 g
  KIDNEY_R: 0.9 g
  KIDNEY_TOTAL: 1.8 g
  LIVER: 9 g
  A/G: 0.9
  ALP: 1442.8 IU/L
  ALT: 43.4 IU/L
  AST: 76.2 IU/L
  BUN: 11.4 mg/dL
  CRE: 0.2 mg/dL
  Ca: 11 mg/dL
  Cl: 104.8 meq/L
  DBIL: 0.01 mg/dL
  GLC: 166.8 mg/dL
  IP: 8.6 mg/dL
  K: 3.9 meq/L
  LDH: 81.4 IU/L
  Na: 141.6 meq/L
  PL: 140.4 mg/dL
  RALB: 2.5 g/dL
  TBIL: 0.046 mg/dL
  TC: 74.6 mg/dL
  TG: 58.8 mg/dL
  TP: 5.3 g/dL
  gamma-GTP: 1.2 IU/L
6 h
  TERMINAL_BW: 201.8 g
  APTT: 15.7 s
  Bas: 0%
  Eos: 0.8%
  Fbg: 289.4 mg/dL
  Hb: 13.7 g/dL
  Ht: 42.1%
  Lym: 78.4%
  MCH: 21.1 pg
  MCHC: 32.6%
  MCV: 64.6 fL
  Mono: 3%
  Neu: 17.2%
  PT: 13.8 s
  Plat: 113.6 x10_4/uL
  RBC: 652.4 x10_4/ul
  Ret: 7.8%
  WBC: 73.5 x10_2/uL
  KIDNEY_L: 0.9 g
  KIDNEY_R: 0.9 g
  KIDNEY_TOTAL: 1.9 g
  LIVER: 8.4 g
  A/G: 0.9
  ALP: 1437 IU/L
  ALT: 44.4 IU/L
  AST: 69.8 IU/L
  BUN: 10.8 mg/dL
  CRE: 0.2 mg/dL
  Ca: 11 mg/dL
  Cl: 106 meq/L
  DBIL: 0.01 mg/dL
  GLC: 172.4 mg/dL
  IP: 9.4 mg/dL
  K: 4.3 meq/L
  LDH: 69.6 IU/L
  Na: 141 meq/L
  PL: 135.6 mg/dL
  RALB: 2.6 g/dL
  TBIL: 0.044 mg/dL
  TC: 70.8 mg/dL
  TG: 47.8 mg/dL
  TP: 5.3 g/dL
  gamma-GTP: 1 IU/L
9 h
  TERMINAL_BW: 202.2 g
  APTT: 16.8 s
  Bas: 0%
  Eos: 0.8%
  Fbg: 291.6 mg/dL
  Hb: 13.5 g/dL
  Ht: 41.5%
  Lym: 79.4%
  MCH: 20.6 pg
  MCHC: 32.6%
  MCV: 63.2 fL
  Mono: 2.6%
  Neu: 16.8%
  PT: 14 s
  Plat: 117.4 x10_4/uL
  RBC: 656.4 x10_4/ul
  Ret: 7.8%
  WBC: 67.5 x10_2/uL
  KIDNEY_L: 0.9 g
  KIDNEY_R: 0.9 g
  KIDNEY_TOTAL: 1.9 g
  LIVER: 8.2 g
  A/G: 0.9
  ALP: 1341.4 IU/L
  ALT: 42.2 IU/L
  AST: 67.8 IU/L
  BUN: 11.2 mg/dL
  CRE: 0.2 mg/dL
  Ca: 10.8 mg/dL
  Cl: 106.6 meq/L
  DBIL: 0.01 mg/dL
  GLC: 177.6 mg/dL
  IP: 9.9 mg/dL
  K: 4.4 meq/L
  LDH: 65.6 IU/L
  Na: 142 meq/L
  PL: 135 mg/dL
  RALB: 2.6 g/dL
  TBIL: 0.04 mg/dL
  TC: 71.6 mg/dL
  TG: 38 mg/dL
  TP: 5.3 g/dL
  gamma-GTP: 1.2 IU/L
24 h
  TERMINAL_BW: 210.3 g
  APTT: 16.1 s
  Bas: 0%
  Eos: 0.6%
  Fbg: 354.6 mg/dL
  Hb: 13.7 g/dL
  Ht: 42.2%
  Lym: 62%
  MCH: 21 pg
  MCHC: 32.5%
  MCV: 64.8 fL
  Mono: 3.2%
  Neu: 33.8%
  PT: 13.5 s
  Plat: 133.9 x10_4/uL
  RBC: 653.2 x10_4/ul
  Ret: 7.9%
  WBC: 115.7 x10_2/uL
  KIDNEY_L: 0.9 g
  KIDNEY_R: 0.9 g
  KIDNEY_TOTAL: 1.9 g
  LIVER: 9.7 g
  A/G: 1
  ALP: 1280.2 IU/L
  ALT: 43 IU/L
  AST: 67.8 IU/L
  BUN: 14.6 mg/dL
  CRE: 0.2 mg/dL
  Ca: 11 mg/dL
  Cl: 103.4 meq/L
  DBIL: 0.01 mg/dL
  GLC: 189.6 mg/dL
  IP: 7.9 mg/dL
  K: 4 meq/L
  LDH: 86.2 IU/L
  Na: 141 meq/L
  PL: 141.8 mg/dL
  RALB: 2.5 g/dL
  TBIL: 0.024 mg/dL
  TC: 78.4 mg/dL
  TG: 88.4 mg/dL
  TP: 5.2 g/dL
  gamma-GTP: 1 IU/L
